What was measured:
Type in all cases: in vivo, Carpophilus truncatus
[1] = tested on: C. truncatus antennae; assay: GC-EAD (gas chromatography coupled with electroantennography) screening of odour and pheromone septa extracts; details: for EAD: compounds in solvent extracts of commercial pheromone septa, key not given, antennae responded to all but one
Method: Pheromone compounds and other biologically active compounds present in odour extracts were screened by Gas Chromatography coupled with electroantennography (GC-EAD). The same GC setup used for chemical analysis was used in conjunction with an electroantennograph (Ockenfels Syntech GmbH, Germany). An apolar column SLB-5 MS (30 m×0.32 mm×0.25 μm) used as analytical column was connected to a CFT splitter plate (Capillary Flow Technology, Agilent). A constant flow of helium (1 mL/min) used as carrier and make-up gas was maintained towards the mass spectrometer. […] The EAD restrictor was fitted in a 50 cm transfer line (Ockenfels Syntech GmbH, Germany) heated at 250° C. allowing only the last 2 mm segment of the restrictor to protrude inside a glass mixing tube (3.8 mm inner diameter) positioned above the insect preparation and in which a 29 cm/s stream of purified air was applied. The described setup allowed relatively well-synced signals between all three detectors. One-week-old beetles were anesthetized on ice and immobilised in a micropipette tip with a cotton plug, with the upper part of the abdomen exposed. A sharp glass electrode filled with an electrolyte (0.1 N KCl, 3% PVP) was inserted into the head of the beetle (reference) while a similar electrode was positioned on the disc-shaped distal end of the antenna using a micromanipulator (FIG. 1). The antennal signal was amplified and recorded using an IDAC-4 (Ockenfels Syntech, Germany). When a good contact was obtained (checked via a 1% isopentyl acetate “puff” stimulation), an aliquot of volatile extract was injected in the GC and the sensitivity or lack thereof to individual compounds was determined by the overlay of MS/FID and EAD signals. Beetle odour extracts as well as extracts from commercial synthetic Carpophilus pheromones were screened by coupled gas chromatography-electroantennographic detection (GC-EAD) to test for beetle sensitivity to the putative pheromone and those of other Carpophilus species (FIG. 9).

[2] = tested on: C. truncatus; assay: Laboratory dual-choice cage bioassays of co-attractant solutions; details: Experiment #2: solution lacking one component vs full commercial co-attractant (CL)
Method: Cage bioassays were developed for the rapid screening of beetle attraction to prototype co-attractant solutions. Adult beetles were separated in groups of hundred individuals (mixed sex) and starved for 48 h in (30 cm×30 cm×30 cm) mesh cages in Controlled Environment rooms (29° C., 60% RH, 16L:8D Photoperiod). Two plastic traps made from 30 mL plastic cups comprising four 5-mm holes equidistantly distributed along their circumference and a single hole in the lid were filled with 20 mL of freshly prepared test co-attractant solutions (FIG. 2) and placed inside the mesh cage approximately 15-20 cm apart. Beetles were allowed 48 h to choose between the two solutions. At the end of the experiments, traps were collected in plastic containers and beetles inside each treatment cups (alive or drowned) as well as non-selecting individuals were counted. Experiments were replicated a minimum of ten times for each prototype solution. An attraction index, used to determine the degree of attraction or deterrence of the test solution in comparison to the control, was calculated as follows: (n beetles in test solution)−(n beetles in control)/total n beetles. Attraction indices returned values ranging between −1 (extreme repellence) and +1 (extreme attraction); 0 corresponding to the absence of preference for either solutions. Deviation of the indices from zero was analysed using two tailed t-tests. Cage bioassays were used to test the attraction of C. truncatus to the commercial co-attractant (co-attractant vs water) and to screen the influence of individual constituents of the commercial Carpophilus co-attractant on C. truncatus attraction. The effect of different constituents was assessed by testing the co-attractant (control) against test co-attractant solutions in which one constituent was excluded.
In a first cage experiment (Experiment #1, table 4), the attraction of C. truncatus attraction to the commercial co-attractant (CL) was verified using water as a control treatment (FIG. 14).
In a second experiment (Experiment #2, table 4), the influence of individual components of the commercial co-attractant on C. truncatus was assessed by testing beetle's preferences between test co-attractant solutions in which a single compound was missing against the full formulation.

[3] = tested on: C. truncatus; assay: Field trials in almond orchards, black funnel traps; details: field trial #3a; simplified co-attractant; FIG. 19
Method: All field trials were conducted in commercial almond orchards located in Mildura area (Victoria, Australia) between 2018 and 2020. Treatments were tested in black funnel traps (supplied by Bugs for Bugs; https://bugsforbugs.com.au/product/Carpophilus-[…]/) placed at ground level and secured using metal fence […] deeply anchored in the soil (FIG. 3). This differs from the conventional use of these traps in stone fruits where traps are suspended on […] 1.5 m height and derives from pilot experiments showing that more C. truncatus are caught when traps are placed on the ground (FIG. 5). An insecticidal strip (dichlorovos) was placed inside the traps to kill captured beetles. […] Beetles responses to different odours in Y-tube olfactometer experiments were analysed using binomial tests, assuming a distribution ratio of 1:1 between the two choice arms as the null-hypothesis. […] The deviation from zero of the attraction indices calculated in cage bioassays was analysed using paired t-tests. Field trial data were analysed as the mean weekly catches per trap over the period of the trials (between 2-6 weeks depending on beetle population density) using generalized linear mixed model fitted with a negative binomial distribution. […]

[4] = tested on: C. truncatus male and female adult beetles; assay: Y-tube olfactometer bioassays with isolated pheromone fractions; details: 20 μl isolated fraction vs hexane control, diet odour in both arms
Method: Beetle orientation to different test odours was tested in a Y-tube glass olfactometer (ID: 2 cm, 10 cm stem and 7.5 cm choice arm length, 70° angle between arms) placed on a thick white paper sheet. All the experiments were conducted in a Controlled Environment Room at 28° C. The olfactometer was placed at a 30° angle to take advantage of beetles' natural negative geotaxis. Both arms of the Y-tube were connected via glass connectors or PTFE tubing to air-tight glass chambers in which different odours were applied. Activated charcoal-filtered air was circulated through the glass chambers entraining test odours to the choice arms of the Y-tube at 400 mL/min. The olfactometer was illuminated from above by dimmable fluorescent light tubes (Fititron, Weiss Gallenkamp, UK) covered by a sheet of UV-permitting diffusing white screen paper (Rosco 216, Germany). Light intensity at both ends of the two choice arms was measured and adjusted to 990 lux using a digital lux meter. Beetles were released individually in the olfactometer's main stem and observed for 10 min. Individuals that crossed the middle of either test arms (4 cm inside the arm; empirically designated as a non-return point) were considered to have made a choice. […] Preferences for male or female odours were assessed in a similar way by testing the beetle's orientation when simultaneous exposed to male and female beetle-infested diet. […]

SMILES | EAD [1] | effect of individual component of commercial co-attractant on C. truncatus [2] | also measured
C/C=C(C)/C=C(C)/C=C(/C=C/CC)CC [(2E,4E,6E,8E)-7-ethyl-3,5-dimethyl-2,4,6,8-undecatetraene] | ✓ | – | –
C/C=C(C)/C=C(/C=C/CC)CC [(2E,4E,6E)-5-ethyl-3-methyl-2,4,6-nonatriene] | ✓ | – | –
CC(C)CCO [isopentyl alcohol] | – | main attractants | C. truncatus attraction at higher concentrations of isopentyl alcohol [3]: significantly increase
C/C=C(C)/C=C(C)/C=C(C)/C=C/CC [Pheromone 2, (2E,4E,6E,8E)-3,5,7-trimethyl-2,4,6,8-undecatetraene] | ✓ | – | GC-EAD responses of C. truncatus males and females ([1]; beetle odour extracts): strong and consistent GC-EAD responses; attraction in Y-tube olfactometer [4]: comparable level of attraction
CC(C)CO [isobutyl alcohol] | – | no observable effect | –
CCC(C)CO (stereo not shown) [2-methylbutanol] | – | deterrent effect | –
CC=O [acetaldehyde] | – | deterrent effect | –
C/C=C/C(C)=C/C(C)=C/C(C)=C/C [(2E,4E,6E,8E)-3,5,7-Trimethyl-2,4,6,8-decatetraene] | ✓ | – | –
CCO [ethanol] | – | main attractants | –
CC/C=C/C(=C/C(C)=C/CC)CC [(3E,5E,7E)-6-ethyl-4-methyl-3,5,7-decatriene] | ✓ | – | –
C/C=C/C(=C/C(C)=C/C(C)=C/C)CC [Pheromone 1, (2E,4E,6E,8E)-7-Ethyl-3,5-dimethyl-2,4,6,8-decatetraene] | ✓ | – | attraction in Y-tube olfactometer [4]: more attractive than pheromone 2
CCOC(C)=O [ethyl acetate] | – | deterrent effect | –
